Molecules are shown by their SMILES.

The target in one data set is hCA I (Homo sapiens, UniProt P00915). Nature of the data set: biochemical.
The target of another data set is hCA II (Homo sapiens, UniProt P00918). Nature of the data set: biochemical.
For data set [1], the target named is T1, hCA IX (Homo sapiens, UniProt Q16790). Nature of the data set: biochemical.
Data set [2] has as its target T2, hCA XII (Homo sapiens, UniProt O43570). Nature of the data set: biochemical.
Data set [3] has as its target T2, hCA XII. Nature of the data set: stop-flow CA inhibition assay, hCA XII. The note with it: for S(I/XII) selectivity: ratio Ki hCA I / Ki hCA XII; for S(II/XII) selectivity: ratio Ki hCA II / Ki hCA XII.
Data set [4] has as its target T1, hCA IX. Nature of the data set: stop-flow CA inhibition assay, hCA IX. To be noted: for S(I/IX) selectivity: ratio Ki hCA I / Ki hCA IX; for S(II/IX) selectivity: ratio Ki hCA II / Ki hCA IX.

T2 sequence (O43570 25-354): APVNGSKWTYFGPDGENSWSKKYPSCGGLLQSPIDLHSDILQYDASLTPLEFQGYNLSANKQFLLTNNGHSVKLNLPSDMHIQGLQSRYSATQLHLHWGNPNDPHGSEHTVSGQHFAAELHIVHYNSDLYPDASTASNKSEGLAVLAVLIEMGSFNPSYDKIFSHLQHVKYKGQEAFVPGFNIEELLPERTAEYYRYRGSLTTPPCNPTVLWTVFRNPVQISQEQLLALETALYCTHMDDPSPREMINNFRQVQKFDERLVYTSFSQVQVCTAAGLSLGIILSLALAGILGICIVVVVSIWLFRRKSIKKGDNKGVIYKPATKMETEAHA
Sequence of hCA I (P00915 whole entry): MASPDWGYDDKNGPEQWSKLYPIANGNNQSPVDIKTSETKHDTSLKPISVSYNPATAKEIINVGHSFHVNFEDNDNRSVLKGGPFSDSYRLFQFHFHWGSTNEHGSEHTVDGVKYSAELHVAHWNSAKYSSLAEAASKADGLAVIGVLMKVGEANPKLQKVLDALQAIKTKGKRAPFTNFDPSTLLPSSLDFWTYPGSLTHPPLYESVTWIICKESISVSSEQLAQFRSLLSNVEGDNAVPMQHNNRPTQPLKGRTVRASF

The compound `COc1ccc(-c2ccccc2)cc1NC(=O)Nc1ccc(S(N)(=O)=O)cc1` [Compound 4] registered a melting point of 271 to 272 °C. This compound also had a Ki at hCA I of 6650 nM. Besides, the affinity at hCA II, expressed as Ki, was 5030 nM.

Turning to `CC(C)NC(=O)Nc1ccc(S(N)(=O)=O)cc1` [Compound 9, 4-(3-Isopropylureido)benzenesulfonamide], the melting point was in the range of 221 to 223 °C. Moreover, the affinity on hCA IX [1], expressed as Ki, was 184 nM. Further, affinity on hCA I was put at a Ki of 448 nM. On hCA XII [2], this compound registered a Ki of 45.9 nM.

As to `NS(=O)(=O)c1ccc(NC(=O)Nc2ccc(C(=O)O)cc2)cc1` [Compound 14, 4-[3-(4-Sulfamoylphenyl)ureido]benzoic acid], the melting point fell in the range of 310 to 313 °C.

`COc1ccc(NC(=O)Nc2ccc(S(N)(=O)=O)cc2)cc1` [Compound 5]: the melting point was in the range of 227 to 229 °C.

As for `NS(=O)(=O)c1ccc(NC(=O)Nc2cccc3ccccc23)cc1` [Compound 1, 4-[3-(Naphthalen-1-yl)ureido]benzenesulfonamide], the “S(I/XII) selectivity” value at hCA XII [3] came out at 15.66. Also, at hCA XII [3], the “S(II/XII) selectivity” value was 2.16. Moreover, the inhibitory constant (Ki) on hCA IX [1] came out at 42.9 nM; on hCA I it was 243 nM; on hCA XII [2] it was 15.5 nM; on hCA II, 33.5 nM. On hCA IX [4], the “S(I/IX) selectivity” value is recorded as 5.66. For the same compound, on hCA IX [4], the “S(II/IX) selectivity” value came out at 0.78.

Regarding `NS(=O)(=O)c1ccc(NC(=O)Nc2ccccc2Cc2ccccc2)cc1` [Compound 3], the melting point was 219 to 221 °C.

The compound `NS(=O)(=O)c1ccc(NC(=O)NC(=O)c2ccccc2)cc1` [Compound 12, N-[(4-Sulfamoylphenyl)carbamoyl]benzamide] displayed a melting point of 262 to 264 °C. For the same compound, on hCA XII [3], the “S(I/XII) selectivity” value is 14.84 and the “S(II/XII) selectivity” value came to 3.27. Further, the Ki at hCA IX [1] stood at 208 nM. At hCA IX [4], the “S(I/IX) selectivity” value is listed as 4.57 and the “S(II/IX) selectivity” value stood at 1.01. Besides, the Ki at hCA I was 949 nM. The compound also came in with a Ki at hCA XII [2] of 63.9 nM. At hCA II, the affinity, expressed as Ki, was 209 nM.

`CCCCNC(=O)Nc1ccc(S(N)(=O)=O)cc1` [Compound 10, 4-(3-Butylureido)benzenesulfonamide] yielded a melting point of 194 to 196 °C.

As for `NS(=O)(=O)c1ccc(NC(=O)Nc2cc(Cl)ccc2Oc2ccccc2)cc1` [Compound 15, 4-[3-(5-Chloro-2-phenoxyphenyl)ureido]benzenesulfonamide], the melting point amounted to 209 °C.

On to `CCOC(=O)c1ccc(NC(=O)Nc2ccc(S(N)(=O)=O)cc2)cc1` [Compound 13, Ethyl 4-[3-(4-sulfamoylphenyl)ureido]benzoate], for which the melting point fell in the range of 261 to 263 °C.

In turn, `CCCCCCNC(=O)Nc1ccc(S(N)(=O)=O)cc1` [Compound 11, 4-(3-Hexylureido)benzenesulfonamide] showed a melting point of 202 to 203 °C.

Consider `COc1cccc(NC(=O)Nc2ccc(S(N)(=O)=O)cc2)c1` [Compound 6, 4-[3-(3-Methoxyphenyl)ureido]benzenesulfonamide], for which the Ki was 210 nM on hCA IX [1] and 90.4 nM at hCA XII [2].

Turning to `NS(=O)(=O)c1ccc(NC(=O)Nc2ccc(Cc3ccccc3)cc2)cc1` [Compound 2, 4-[3-(4-Benzylphenyl)ureido]benzenesulfonamide], the melting point was in the range of 230 to 232 °C.

On to `NS(=O)(=O)c1ccc(NC(=O)Nc2cccc(F)c2)cc1` [Compound 7, 4-[3-(3-Fluorophenyl)ureido]benzenesulfonamide], for which the melting point was in the range of 240 to 241 °C.

Compound `CCNC(=O)Nc1ccc(S(N)(=O)=O)cc1` [Compound 8, 4-(3-Ethylureido)benzenesulfonamide] yielded a melting point of 229 to 231 °C.

For the origin of these results see publication PMC10707797, “Ureidobenzenesulfonamides as Selective Carbonic Anhydrase I, IX, and XII Inhibitors” (Molecules, 2023).
